Measurements taken from article PMC9855432, “Novel Set of Diarylmethanes to Target Colorectal Cancer: Synthesis, In Vitro and In Silico Studies” (Biomolecules, 2022).

What was measured:
[1] = test system: human CRC HT-29 cells; experiment: MTT cell viability / IC50 on HT-29 cells; type: cell-based; details: for IC50: MTT assay, 1 to 50 µM, mean ± SEM of at least three experiments; for viability at 50 µM: HT-29, MTT screening
Method: (§1) Cells were grown in DMEM medium for HT-29 cells and RPMI 1640 medium for HCT116 cells, supplemented with 10% FBS, 1% L-glutamine and 100 U/mL penicillin and 100 μg/mL streptomycin. Cultures were maintained in a humidified atmosphere containing 5% CO2 at 37 °C. Stock solutions of each compound were used at 10^−2 M in DMSO and then diluted in culture medium to obtain the appropriate final concentrations. […] L929 cell line is a non-cancer cell line derived from L-strain (L cells) and has been grown in the Peptinov laboratory for years. L929 cells are murine adherent fibroblasts from subcutaneous connective tissue (areolar and adipose tissues). Cells were grown in DMEM medium supplemented with 10% FBS, 1% L-glutamine and 100 U/mL penicillin and 100 µg/mL streptomycin and maintained in a humidified incubator at 37 °C, 5% CO2. When confluence is at 80%, cells are trypsinyzed for 3 min and diluted in fresh medium. Each batch of cells is kept for 15 passages before being discarded and a new batch thawed.
(§2) All compounds were tested on the metabolic activity of the cells using the MTT colorimetric assay. Briefly, cells were seeded in 96-well microplates at 8 × 10^3 cells/well for human CRC HT-29 cells and 5 × 10^3 cells/well for human CRC HCT116 cells and grown for 24 h in appropriate culture medium prior to exposure or not to compounds (6–27) with concentration ranges from 1 to 50 µM. After 48 h of treatment, MTT (5 g/L in Phosphate-buffered saline (PBS)) was added and incubated for another 3 h. The MTT was then removed from the wells and 100 µL/well of DMSO were added to dissolve formazan. The optical density was detected with a microplate reader (Thermoscientific, Multiskan FC) at 550 nm and cell viability was expressed as a percentage of each treatment condition compared to control cells. IC50 values were calculated for all compounds from the dose–response curve.

[2] = test system: human CRC HCT116 cells; experiment: MTT cell viability / IC50 on HCT116 cells; type: cell-based; details: for IC50: MTT assay, 1 to 50 µM, mean ± SEM of at least three experiments; for viability at 50 µM: HCT-116, MTT screening
Method: as §1, §2

[3] = test system: human CRC HT-29 cells; experiment: DNA fragmentation, Cell Death Detection ELISA, HT-29; type: cell-based; details: treated at IC50, n-fold compared to control
Method: (§3) Human CRC HT-29 and HCT116 cells were treated or not with the determined IC50 values of compounds (12a, 10a, 10b) for 24 and 48 h and then harvested with trypsin. Histone release from the nucleus during apoptosis was analyzed using the Cell Death Detection ELISA^PLUS as previously described. Cytosol extracts from 10^5 cells of each condition were obtained and DNA fragmentation was measured according to the manufacturer’s protocol. Results were reported as n-fold compared to control cells.

[4] = test system: human CRC HCT116 cells; experiment: DNA fragmentation, Cell Death Detection ELISA, HCT116; type: cell-based; details: treated at IC50, n-fold compared to control
Method: as §3

[5] = test system: P-Akt; experiment: Western blot of P-Akt in HCT116 cells; type: cell-based, human; details: HCT116, treated at IC50, 6 and 12 h
Method: (§4) Human CRC HT-29 and HCT116 cells were treated or not with the determined IC50 values of compounds (12a, 10a, 10b) for indicated times (6, 12, 24 and 48h) and then harvested with trypsin. For total protein extraction, collected samples of each condition were washed with PBS. Then, the total cell pool was centrifuged at 200× g for 5 min at 4 °C and homogenized in RIPA lysis buffer (50 mM HEPES, pH 7.5, 150 mM NaCl, 1% sodium deoxycholate, 1% NP-40, 0.1% Sodium Dodecyl Sulfate (SDS), […] of aprotinin) containing protease inhibitors according to the manufacturer’s instructions as previously described. Proteins (60 µg) were separated on 12.5% SDS-PAGE gels and transferred to polyvinylidene difluoride (PVDF) membranes. Membranes were probed with respective human antibodies against caspase-3, cleaved caspase-3, PARP and Akt, ERK, p38 MAP Kinases and its phosphorylated forms according to the manufacturer’s instructions. After incubation with appropriate secondary antibodies, blots were developed using the «Immobilon Western » substrate following the manufacturer’s protocol and G:BOX system (Syngene, Ozyme). […]
(§5) P-Akt, Akt, P-ERK, ERK, P-p38, p-38 sourced from human CRC HCT116 cells line were investigated. […] Total lysates were collected and expression of Akt, ERK and p38 MAPK proteins and their phosphorylated forms were determined by Western blot analysis.

[6] = test system: P-ERK; experiment: Western blot of P-ERK in HCT116 cells; type: cell-based, human; details: HCT116, treated at IC50, 6 and 12 h
Method: as §4, §5

[7] = test system: P-p38; experiment: Western blot of P-p38 in HCT116 cells; type: cell-based, human; details: HCT116, treated at IC50, 6 and 12 h
Method: as §4, §5

[8] = test system: PARP; experiment: Western blot of cleaved PARP in HT-29 cells; type: cell-based, human
Method: (§6) Human CRC HT-29 and HCT116 cells were treated or not with the determined IC50 values of compounds (12a, 10a, 10b) for indicated times (6, 12, 24 and 48h) and then harvested with trypsin. For total protein extraction, collected samples of each condition were washed with PBS. Then, the total cell pool was centrifuged at 200× g for 5 min at 4 °C and homogenized in RIPA lysis buffer (50 mM HEPES, pH 7.5, 150 mM NaCl, 1% sodium deoxycholate, 1% NP-40, 0.1% Sodium Dodecyl Sulfate (SDS), […] of aprotinin) containing protease inhibitors according to the manufacturer’s instructions as previously described. Proteins (60 µg) were separated on 12.5% SDS-PAGE gels and transferred to polyvinylidene difluoride (PVDF) membranes. Membranes were probed with respective human antibodies against caspase-3, cleaved caspase-3, PARP and Akt, ERK, p38 MAP Kinases and its phosphorylated forms according to the manufacturer’s instructions. After incubation with appropriate secondary antibodies, blots were developed using the «Immobilon Western » substrate following the manufacturer’s protocol and G:BOX system (Syngene, Ozyme). Membranes were then reblotted with human anti-β-actin used as a loading control.
Cells were treated or not for 24 and 48 h, with IC50 values of compounds 10a, 10b and 12a, for human CRC HT-29 cells and compounds 10a and 12a for human CRC HCT116 cells. Total lysates were collected, and expression of apoptosis-related proteins was determined by Western blot analysis.

[9] = test system: caspase-3; experiment: Western blot of cleaved caspase-3 in HT-29 cells; type: cell-based, human; details: HT-29, treated at IC50, within 48 h
Method: as §6
(§7) Cells were treated or not for 24 and 48 h, with IC50 values of compounds 10a, 10b and 12a, for human CRC HT-29 cells and compounds 10a and 12a for human CRC HCT116 cells. […]

[10] = test system: caspase-3; experiment: Western blot of cleaved caspase-3 in HCT116 cells; type: cell-based, human; details: HCT116, treated at IC50, 24 h (enhanced after 48 h)
Method: as §6, §7

[11] = test system: PARP; experiment: Western blot of cleaved PARP in HCT116 cells; type: cell-based, human; details: HCT116, treated at IC50, 24 and 48 h
Method: as §6, §7

| IC50 ([1]; Homo sapiens, HT-29, 48 h) [µM] | IC50 ([1]; 48 h) [µM] | IC50 ([2]; Homo sapiens, HCT-116, 48 h) [µM] | IC50 ([2]; 48 h) [µM] | SMILES | viability at 50 µM ([1]; Homo sapiens, 48 h) [%] | viability at 50 µM ([2]; Homo sapiens, 48 h) [%] | HT-29 DNA Fragmentation (Fold) ([3]; 24 h) | HT-29 DNA Fragmentation (Fold) ([3]; 48 h) | HCT116 DNA Fragmentation (Fold) ([4]; 24 h) | HCT116 DNA Fragmentation (Fold) ([4]; 48 h) | P-Akt expression [5] | ERK phosphorylation [6] | p38 activation [7] | cleaved PARP expression ([8]; HT-29, treated at IC50, 24 h) | cleaved PARP expression ([8]; HT-29, treated at IC50, 48 h) | cleaved caspase-3 expression [9] | cleaved caspase-3 expression [10] | cleaved PARP expression [11] |
| --- | --- | --- | --- | --- | --- | --- | --- | --- | --- | --- | --- | --- | --- | --- | --- | --- | --- | --- |
| < 30 | 25.7 ± 1.21 | < 35 | 33.6 ± 0.71 | COc1ccc(C(=Cc2ccc(C(C)(C)C)cc2)c2ccccn2)cc1 [Compound 10a, 2-(2-(4-(tert-butyl)phenyl)-1-(4-methoxyphenyl)vinyl)pyridine] | < 50 | < 50 | 1.12 | 0.83 | 0.83 | 1.89 | inhibition is also observed | drastically decreased | no p38 activation was observed | never been expressed | never been expressed | – | – | – |
| – | 23 ± 1.27 | < 35 | 31.4 ± 1.74 | COc1ccc(C(=Cc2ccc(C(F)(F)F)cc2)c2ccccn2)cc1 [Compound 12a, 2-(1-(4-methoxyphenyl)-2-(4-(trifluoromethyl)phenyl)vinyl)pyridine] | < 50 | < 50 | 2.90 | 3.25 | 1.46 | 6.97 | downregulated | drastically decreased | no p38 activation was observed | slightly enhanced | overexpressed | high expression of the cleaved form of caspase-3 | cleavage of caspase-3 | significant increase of cleaved PARP |
